Test results reported in patent US10183080B2, “Use of single dendritic wedge cell penetrating peptides to facilitate cellular delivery of nanoparticles and nanoparticles carrying cargos” (The Government of the United States of America, as …, priority 2016, dated 2019).
Where no end group is shown, it is not given here.

Experiments:
COS-1 cells [1] = test: Cellular uptake of QD-dendritic peptide bioconjugates (fluorescence/confocal imaging); assay type: cell-based, African green monkey; conditions: 4 h incubation, 100 nM QD, 5 peptides/QD
Procedure: COS-1 cells were incubated for 4 h with 150 μL of a 100 nM solution of QDs assembled with the (Arg9)1-16 peptide series at ratio of 5/QD. This ratio was chosen since it represents a value where stochastic assembly events are minimized and correlates with ratios used in the DLS and SPR analysis. Cells were then incubated with the Transferrin Alexa647 endosomal marker for another hour prior to washing and processing which included counterstaining with the DAPI nuclear dye as described in the Methods section. FIGS. 4A through 4G present representative micrographs collected from these samples as projections of confocal stacks and side profiles of the cells. […] The bright yellow PL also observed in these images reflects colocalization of the green QDs with the red Alexa647 marker and confirms that the QDs are located in the endolysosomal system with a primary perinuclear localization as expected following endosomal vesicular uptake.
Kinetics of Poly(Arg)1-16-mediated QD uptake into cells were next evaluated. For this, 150 μL of 100 nM QDs assembled with a ratio of 5 peptides/QD were exposed to COS-1 cells for fixed time periods of 0.5, 1, 4, 8 and 24 h. […] Some delivery trends are visible from a comparison across these images. […] The amount and brightness of QD labeling in the endosomes directly correlates with the increase in the dendritic poly(Arg) display on the QD surface. Additionally, as the cellular exposure time increases, the amount of QD uptake increases proportionally as well. The measured PL intensity per cell from these representative images is plotted in FIG. 5B highlighting the general trends. Although some variability was noted (most likely due to the inherent noisy background found in such gross cellular studies), replicate samples reproduced the same generalized trends of increased poly(Arg)n dendritic branching and increased cellular exposure time leading to increased bioconjugate uptake and PL intensity. […]

[2] = Dynamic light scattering of QD-peptide conjugates; assay type: physicochemical; conditions: DLS; 5 peptides/QD; 50 nM QD, 0.1×PBS pH 7.4, 25° C.
Description: Dynamic Light Scattering (DLS) analysis was next undertaken to measure the QD-peptide conjugates hydrodynamic diameter (HD) and diffusion coefficients. Based on the values estimated above, assembly ratios of 5 peptides/QD were utilized during these measurements. The QD-(Arg9)1 conjugate's HD increases from the QD only value of 24.3±1 nm to ˜26.7±1.3 nm. HD values for the QD-(Arg9)2-8 conjugates are essentially the same within experimental error with an average value of 30.5±0.5 nm while the QD-(Arg9)16 increases to ˜33 nm. The diffusion coefficients follow the same trend but in an inverse manner from ˜17 to 13 μm^2/s. […] They support the notion that the peptides are attached via the His6 region to the QD surface and that the polyproline regions span through the PEG layer displaying the poly(Arg) motifs on the QD's surface through the surrounding PEG layer as intended in the synthetic design.
Dynamic light scattering (DLS) measurements were carried out using a ZetaSizer NanoSeries equipped with a HeNe laser source (λ=633 nm, Malvern Instruments Ltd, Worcestershire, UK) and analyzed using Dispersion Technology Software (DTS, Malvern Instruments Ltd). 50 nM concentration solutions of QDs were loaded into disposable cells, and data were collected at 25° C. All samples were prepared in 0.1×PBS buffer pH 7.4. For each sample, the autocorrelation function was the average of five runs of 10 s each and then repeated from three to six times. CONTIN analysis was used to determine the number versus hydrodynamic size profiles for the dispersions studied.

COS-1 cells [3] = test: Dendritic peptide-mediated delivery of cargo-decorated QDs; assay type: cell-based, African green monkey
Description: Lastly, as proof of concept, tests were made of the ability of the dendritic peptides to facilitate QD delivery, when the QDs are decorated with additional “cargo.” For this, following initial attachment of the (Arg9)n peptides to the QDs, they were further assembled with one of three prototypical cargos, a dye-labeled peptide, a drug-labeled peptide and a fluorescent protein. FIG. 8B presents a series of representative images that highlight some of the results achieved using 520 nm emitting QDs functionalized with a zwitterionic compact ligand 4; this ligand was used as it still allows larger proteins access to the QD surface for (His)n-binding unlike PEG which can sterically preclude them. […] Analogous to the data shown above, peptides with higher (Arg9)n dendrimeric branching, use of higher ratios of peptide/QD, and longer delivery times each served to facilitate higher levels of QD-cargo conjugate uptake into the cells (data not shown).
CdSe/ZnS core/shell QDs with emission maxima centered at 550 nm were synthesized as described. These were rendered hydrophilic through cap exchange of the native hydrophobic ligands with polyethylene glycol-(average MW 750 Da) appended dihydrolipoic acid ligands terminating in methoxy groups (DHLA-PEG750-OMe, see FIG. 1B) as described. For cargo delivery experiments, 520 nm emitting QDs functionalized with a zwitterionic compact ligand 4 (CL4) were utilized.
Aliquots of African green monkey kidney fibroblast-like COS-1 cells (CRL-1650) from American Type Culture Collection (ATCC, Manassas, Va., USA) were cultured in Dulbecco's Modified Eagle's Medium (DMEM, ATCC) supplemented with 10% (v/v) heat-inactivated fetal bovine serum (ATCC) and 1% antibiotic/antimycotic at 37° C. in a humidified atmosphere containing 95% air/5% CO2. Aliquots were allowed to adhere to the culture flask and reach 80% confluency, usually within 3 to 4 days. The monolayer was harvested by washing once with PBS, once with calcium/magnesium-free PBS, and incubating the monolayer with trypsin until detachment from the culture flask (usually within 5 min). Cells were seeded at 1-2×10^4 cells/well in Lab-Tek 8-well chambered No. 1 borosilicate cover glass system (Nalge Nunc, Rochester N.Y., USA) that had been previously coated for at least 4 h with fibronectin (5 μg/mL, Life Technologies). Cells were allowed to adhere to the bottom of the wells by further culture overnight at 37° C. in 95% air/5% CO2 air. Following overnight culture, media was removed and washed with 100 μL of 25 mM HEPES supplemented with 1 mM sodium pyruvate. […]
For cargo delivery experiments, mCherry fluorescent protein was prepared as described in the literature. […] Cytotoxicity assays were determined using the Vybrant® MTT Cell Proliferation Assay Kit. […]

| Substance | QD uptake (QD PL in confocal micrographs) (COS-1 cells [1]) | HD (hydrodynamic diameter) [2] | comparative performance in cargo delivery experiments (COS-1 cells [3]; low valencies, short delivery times (data not shown)) | delivery of QDs decorated with ~25 doxorubicin labeled peptides (COS-1 cells [3]; ratio 0.5 peptide/QD, 1 h exposure, cargo MW ~50 kDa, 520 nm CL4 QDs) | delivery of ~30 mCherry per QD (COS-1 cells [3]; ratio 1 peptide/QD, 1 h exposure, cargo MW ~850 kDa, 520 nm CL4 QDs) | delivery of QDs decorated with ~30 Cy5 labeled peptides (COS-1 cells [3]; ratio 1 peptide/QD, 2 h exposure, cargo MW ~100 kDa/QD, 520 nm CL4 QDs) |
| --- | --- | --- | --- | --- | --- | --- |
| [RRRRRRRRRFG]-x-hex-hex-WP9G2H6 (RRRRRRRRRFGWPPPPPPPPPGGHHHHHH; not fully specified (residue 11); also: oxime bond (x) between G11 and hexamine spacers) [(Arg9)1, functions as control] | no appreciable QD uptake | 26.7 ± 1.3 nm |  |  |  |  |
| [(RRRRRRRRRFG)-x-hex-P9G]2-K′WGH6 (peptide RRRRRRRRRFGPPPPPPPPPG; chain KWGHHHHHH) [(Arg9)2, generation 1 dendritic wedge peptide displaying two Arg9 motifs] |  | 30 ± 1.4 nm |  |  |  |  |
| [RRRRRRRRRFG]4-x-K′K′WP9G2H6 [(Arg9)4] |  | 30.7 ± 2.0 nm |  |  |  |  |
| [RRRRRRRRRFG]8-x-K′K′K′WP9G2H6 [(Arg9)8] | most intense QD PL | 30.9 ± 1.4 nm | worked best | allowed delivery | allowed delivery | facilitated delivery |
| [RRRRRRRRRFG]16-x-K′K′K′K′WP9G2H6 [(Arg9)16] | most intense QD PL | 32.7 ± 4.9 nm |  |  |  |  |
